Numbers after ± are expanded uncertainties.
Experiments:
[1] = mn = molality of the nth substance listed, in mol/kg; conditions: 100 kPa, Liquid; for speed of sound: Frequency=3 MHz, Sing-around technique in a fixed-path interferometer; for mass density: Vibrating tube method
[2] = 100 kPa, Liquid

Row | SMILES | speed of sound ([1]; 293.15 K, m1 = 0.1) | speed of sound ([1]; 293.15 K, m1 = 0.2) | speed of sound ([1]; 293.15 K, m1 = 0.3) | mass density ([1]; 293.15 K, m1 = 0.1) | mass density ([1]; 293.15 K, m1 = 0.2) | mass density ([1]; 293.15 K, m1 = 0.3) | speed of sound ([1]; 298.15 K, m1 = 0.1) | speed of sound ([1]; 298.15 K, m1 = 0.2) | speed of sound ([1]; 298.15 K, m1 = 0.3) | mass density ([1]; 298.15 K, m1 = 0.1) | mass density ([1]; 298.15 K, m1 = 0.2) | mass density ([1]; 298.15 K, m1 = 0.3) | speed of sound ([1]; 303.15 K, m1 = 0.1) | speed of sound ([1]; 303.15 K, m1 = 0.2) | speed of sound ([1]; 303.15 K, m1 = 0.3) | mass density ([1]; 303.15 K, m1 = 0.1) | mass density ([1]; 303.15 K, m1 = 0.3) | speed of sound ([1]; 308.15 K, m1 = 0.1) | speed of sound ([1]; 308.15 K, m1 = 0.2) | speed of sound ([1]; 308.15 K, m1 = 0.3) | also measured
1 | OC[C@H]1O[C@@](CO)(O[C@H]2O[C@H](CO)[C@@H](O)[C@H](O)[C@H]2O)[C@@H](O)[C@@H]1O [D-sucrose] + O | 1492.3 ± 1.3 m/s | 1502.4 ± 1.3 m/s | 1512.9 ± 1.3 m/s | 1011.49 ± 0.14 kg/m3 | 1024.67 ± 0.14 kg/m3 | 1037.84 ± 0.14 kg/m3 | 1505.9 ± 1.3 m/s | 1515.7 ± 1.3 m/s | 1525.7 ± 1.3 m/s | 1010.26 ± 0.14 kg/m3 | 1023.37 ± 0.14 kg/m3 | 1036.47 ± 0.14 kg/m3 | 1517.8 ± 1.3 m/s | 1527 ± 1.3 m/s | 1536.8 ± 1.3 m/s | 1008.81 ± 0.14 kg/m3 | 1034.89 ± 0.14 kg/m3 | 1528.1 ± 1.3 m/s | 1536.9 ± 1.3 m/s | 1546.3 ± 1.3 m/s | mass density ([1]; 303.15 K, m1 = 0.2): 1021.85 ± 0.14 kg/m3; mass density ([1]; 308.15 K, m1 = 0.1): 1007.14 ± 0.13 kg/m3; mass density ([1]; 308.15 K, m1 = 0.2): 1020.13 ± 0.14 kg/m3; mass density ([1]; 308.15 K, m1 = 0.3): 1033.11 ± 0.14 kg/m3; speed of sound ([1]; 313.15 K, m1 = 0.1): 1536.7 ± 1.3 m/s; speed of sound ([1]; 313.15 K, m1 = 0.2): 1545.4 ± 1.3 m/s; speed of sound ([1]; 313.15 K, m1 = 0.3): 1554.2 ± 1.4 m/s; mass density ([1]; 313.15 K, m1 = 0.1): 1005.28 ± 0.13 kg/m3; mass density ([1]; 313.15 K, m1 = 0.2): 1018.22 ± 0.14 kg/m3; mass density ([1]; 313.15 K, m1 = 0.3): 1031.16 ± 0.14 kg/m3
2 | O [water] | – | – | – | – | – | – | – | – | – | – | – | – | – | – | – | – | – | – | – | – | mass density ([2]; 308.15 K, Vibrating tube method): 994.061 ± 0.26 kg/m3; speed of sound ([2]; 313.15 K, Frequency=3 MHz, Sing-around technique in a fixed-path interferometer): 1528.8 ± 1.6 m/s
3 | O=C[C@H](O)[C@@H](O)[C@H](O)[C@H](O)CO [D-glucose] + O | 1489.2 ± 1.6 m/s | 1496 ± 1.6 m/s | 1502.5 ± 1.6 m/s | 1005.07 ± 0.26 kg/m3 | 1012.08 ± 0.27 kg/m3 | 1018.81 ± 0.27 kg/m3 | 1502.9 ± 1.6 m/s | 1509.4 ± 1.6 m/s | 1515.8 ± 1.6 m/s | 1003.87 ± 0.26 kg/m3 | 1010.89 ± 0.27 kg/m3 | 1017.52 ± 0.27 kg/m3 | 1514.8 ± 1.6 m/s | 1521.2 ± 1.6 m/s | 1527.3 ± 1.6 m/s | 1002.44 ± 0.26 kg/m3 | 1016.01 ± 0.27 kg/m3 | 1525.3 ± 1.6 m/s | 1531.2 ± 1.6 m/s | 1537.2 ± 1.6 m/s | mass density ([1]; 308.15 K, m1 = 0.1): 1000.79 ± 0.26 kg/m3; mass density ([1]; 308.15 K, m1 = 0.3): 1014.29 ± 0.27 kg/m3; speed of sound ([1]; 313.15 K, m1 = 0.1): 1534.1 ± 1.6 m/s; speed of sound ([1]; 313.15 K, m1 = 0.2): 1539.8 ± 1.6 m/s; speed of sound ([1]; 313.15 K, m1 = 0.3): 1545.7 ± 1.6 m/s; mass density ([1]; 313.15 K, m1 = 0.1): 998.945 ± 0.26 kg/m3; mass density ([1]; 313.15 K, m1 = 0.2): 1005.86 ± 0.26 kg/m3; mass density ([1]; 313.15 K, m1 = 0.3): 1012.36 ± 0.27 kg/m3

— the NIST ThermoML archive (doi:10.1016/j.jct.2014.05.015)
